Assay results published in PubChem BioAssay AID463223 (The Scripps Research Institute Molecular Screening Center, 2010).
The source made the active and inactive calls. How the calls were made is not given here.

Target: Serine/threonine-protein phosphatase 5 (Homo sapiens) (UniProt P53041)
Assay: blocking PP5 removal of histone phosphate – biochemical, radiolabel, single concentration, PP5 inhibitor project, late-stage follow-up (AID 463223)
Details: purified PP5c, 33P-phosphohistone radiolabel assay, scintillation counting, 10 min; at 10 µM; hits give high values

Chain of Serine/threonine-protein phosphatase 5 (Homo sapiens) (P53041 whole entry, looked up): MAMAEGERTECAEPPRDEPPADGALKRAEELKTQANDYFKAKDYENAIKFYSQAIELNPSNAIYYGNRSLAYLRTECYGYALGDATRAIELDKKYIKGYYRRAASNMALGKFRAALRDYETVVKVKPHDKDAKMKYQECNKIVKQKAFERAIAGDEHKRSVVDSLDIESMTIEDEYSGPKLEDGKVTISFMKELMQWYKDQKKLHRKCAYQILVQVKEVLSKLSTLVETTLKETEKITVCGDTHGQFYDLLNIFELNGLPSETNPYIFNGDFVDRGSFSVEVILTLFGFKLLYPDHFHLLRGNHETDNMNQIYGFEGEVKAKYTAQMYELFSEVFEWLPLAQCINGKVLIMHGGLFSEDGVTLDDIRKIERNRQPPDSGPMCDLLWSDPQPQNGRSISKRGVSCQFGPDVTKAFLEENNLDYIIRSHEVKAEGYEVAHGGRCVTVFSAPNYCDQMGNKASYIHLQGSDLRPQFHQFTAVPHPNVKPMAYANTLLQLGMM

## CCn1c2ccccc2c2cc(NC(=O)COC(=O)c3ccc(NC(=O)CC#N)cc3)ccc21
  inhibition: -0.66% (inactive)

## CCOC(=O)c1nn(-c2ccc(C)cc2)c(=O)c2c(N)scc12
  inhibition: 0.85% (inactive)

## O=C(NC1(O)C(=O)c2ccccc2C1=O)c1ccccc1
  inhibition: 1.84% (inactive)

## COc1cnc(-c2ccccn2)nc1Sc1ccccc1
  inhibition: -1.46% (inactive)

## Cc1ccc(C(=O)NNc2cc(N3CCCC3)nc(N3CCCC3)n2)cc1
  inhibition: 0.83% (inactive)

## COc1ccc(NC(=S)Nc2ccc3nsnc3c2)cc1
  inhibition: -2.27% (inactive)

## N#Cc1c(-c2ccc(Cl)cc2)cc(-c2cccs2)nc1SCC(=O)O
  inhibition: 12.1% (inactive)

## CCOC(=O)c1cnc(-n2nc(C)cc2C)nc1NC1CCCCC1
  inhibition: 1.15% (inactive)

## CCOC(=O)c1cnc(-n2cc(C)cn2)nc1NCc1ccc2c(c1)OCO2
  inhibition: -0.82% (inactive)

## CC(C)(CS(=O)(=O)[O-])NC(=O)CC[N+](C)(C)CCO
  inhibition: 2.71% (inactive)

## COc1ccc(Cl)cc1C(=O)Nc1cccc(-c2ccc3nncn3n2)c1
  inhibition: -1.12% (inactive)

## COc1cnc(-c2ccccn2)nc1Oc1cccc(C(F)(F)F)c1
  inhibition: -2.17% (inactive)

## CCOC(=O)c1sc(N2C(=O)C(O)=C(C(=O)c3ccco3)C2c2cccc([N+](=O)[O-])c2)nc1C (centres undefined)
  inhibition: 9.04% (inactive)

## CCOC(=O)C1=C(C)OC2(O)c3ccccc3C(=O)C12O (centres undefined)
  inhibition: -1.47% (inactive)

## Nc1cc2nsnc2cc1Br
  inhibition: 1.86% (inactive)

## Cc1ccc(-n2nc(C(=O)O)cc2-c2ccc(Cl)cc2)cc1
  inhibition: 1.91% (inactive)

## O=C(O)C1C2CCC(O2)C1C(=O)NC1CCCCC1 (centres undefined)
  inhibition: 45.9%

## O=C1CCCC2=C1C1(O)C(=O)c3ccccc3C1(O)O2 (centres undefined)
  inhibition: 4.95% (inactive)

## COc1cnc(-c2ccccn2)nc1Sc1ccc(Cl)cc1
  inhibition: -3.05% (inactive)

## Cc1[nH]n(-c2ccccc2)c(=O)c1C(c1ccc([N+](=O)[O-])cc1)c1c(C)[nH]n(-c2ccccc2)c1=O
  inhibition: 3.51% (inactive)

## Oc1ccccc1/C=N/Nc1cc(N2CCCC2)nc(N2CCCC2)n1
  inhibition: 3.34% (inactive)

## O=S(=O)(Cc1cc(NCc2ccccc2)nc(-c2ccccn2)n1)c1ccccc1
  inhibition: 8.88% (inactive)

## O=C(O)c1n[nH]nc1-c1ccccc1
  inhibition: 31.1%

## Oc1ccc(/C=N/Nc2cc(N3CCOCC3)nc(N3CCOCC3)n2)c(O)c1
  inhibition: 0.87% (inactive)

## COc1ccc2c(Cl)c(C(=O)N/N=C/c3ccc4c(c3)OCO4)sc2c1
  inhibition: -0.4% (inactive)

## O=C(O)c1cc(-c2ccc(Cl)c(Cl)c2)n(-c2ccccc2)n1
  inhibition: 0.56% (inactive)

## Nc1nc(-c2ccccn2)nc(N)c1Cc1ccc(Cl)cc1Cl
  inhibition: -1.92% (inactive)

## COc1ccc(C(=O)c2nccc3cc(OC)c(OC)cc23)cc1OC
  inhibition: 1.93% (inactive)

## Clc1ccc(-n2nnnc2-c2cnc(-c3ccccn3)nc2-c2cccs2)cc1
  inhibition: -0.04% (inactive)

## CCCCn1c(NC(=O)c2ccco2)c(C(=O)OCC)c2nc3ccccc3nc21
  inhibition: 2.8% (inactive)

## O=C(O)c1cc(-c2ccc(Cl)c(Cl)c2)n(-c2ccc(F)cc2)n1
  inhibition: -0.91% (inactive)

## CN1CCN(C(c2ccccn2)c2cc(Cl)c3cccnc3c2O)CC1 (centres undefined)
  inhibition: -2.91% (inactive)

## O=C(NC1(O)C(=O)c2ccccc2C1=O)c1c(Cl)cccc1Cl
  inhibition: -1.34% (inactive)

## c1ccc(Nc2nc(-c3ccccn3)cs2)cc1
  inhibition: -1.08% (inactive)

## COc1cnc(-c2ccccn2)nc1Sc1ccccc1Cl
  inhibition: 0.33% (inactive)

## CCOC(=O)c1cnc(-n2nc(C)cc2C)nc1NCc1ccccc1
  inhibition: 3.11% (inactive)

## COc1cnc(-c2ccccn2)nc1Oc1cccc(Cl)c1
  inhibition: -1.35% (inactive)

## Cc1nnc(NC(=O)C2C3C=CC(O3)C2C(=O)O)s1 (centres undefined)
  inhibition: 16%

## O=c1[nH]c(Nc2ccccc2)cc2ccccc12
  inhibition: 0.47% (inactive)

## O=C(Nc1nc(-c2ccccn2)cs1)C1CC(=O)N(c2ccc3c(c2)OCCO3)C1 (centres undefined)
  inhibition: -3.02% (inactive)

## CCOC(=O)c1cnc(-n2nc(C)cc2C)nc1NC(C)c1ccccc1 (centres undefined)
  inhibition: 0.17% (inactive)

## CCCCN(CC)c1nc(N)c2c(N)nc(OCC)cc2c1C#N
  inhibition: 2.68% (inactive)

## c1ccc(-c2nccc(-c3ccc(-n4cnc5ccccc54)cc3)n2)nc1
  inhibition: 9.23% (inactive)

## Oc1cccc(/C=N/Nc2cc(N3CCCC3)nc(N3CCCC3)n2)c1
  inhibition: 1.73% (inactive)

## COc1ccc(CN2C(=O)Cc3c2nc(N)c2c(N)nc(N4CCCCC4)c(C#N)c32)cc1
  inhibition: -2.57% (inactive)

## O=C1Nc2ccccc2N2CCCC12 (centres undefined)
  inhibition: -0.58% (inactive)

## O=C(O)c1cc(-c2ccc(Cl)cc2)n(-c2cccc(Cl)c2)n1
  inhibition: 2.43% (inactive)

## N#Cc1c(N2CCCC(O)C2)nc(N)c2c(N)nc3c(c12)CC(=O)N3C12CC3CC(CC(C3)C1)C2 (centres undefined)
  inhibition: -0.93% (inactive)

## COc1ccccc1Sc1nc(-c2ccccn2)ncc1OC
  inhibition: -2.42% (inactive)

## CCCN(CC1CC1)c1nc(N)c2c(N)nc(OC)cc2c1C#N
  inhibition: 0.96% (inactive)

## COc1ccc(NC(=O)C2C3CCC(O3)C2C(=O)O)c(OC)c1 (centres undefined)
  inhibition: 49.1%

## CCOC(=O)c1sc2nc3c(SCC(=O)O)cc(C(=O)c4cc(F)ccc4O)cn3c(=O)c2c1C
  inhibition: 14.5% (inactive)

## O=C(NC1(O)C(=O)c2ccccc2C1=O)c1ccc(C(F)(F)F)cc1
  inhibition: -0.52% (inactive)

## CC(=O)C(C(C)=O)C1(O)C(=O)c2ccccc2C1=O
  inhibition: 2.52% (inactive)

## COc1cc(Br)c(C(=O)c2nccc3cc(OC)c(OC)cc23)cc1OC
  inhibition: 1.9% (inactive)

## CCOC(=O)c1cnc(-n2nc(C)cc2C)nc1NCCc1ccccc1
  inhibition: 0.06% (inactive)

## COc1cnc(-c2ccccn2)nc1Sc1ccc(F)cc1
  inhibition: -3.12% (inactive)

## COc1cnc(-c2ccccn2)nc1Sc1cccc(Cl)c1
  inhibition: -0.66% (inactive)

## CCOc1ccc(NC(=S)Nc2ccc3nsnc3c2)cc1
  inhibition: -0.34% (inactive)

## COc1ccc(OCCCC(=O)Nc2nc(-c3ccccn3)cs2)cc1
  inhibition: -1.62% (inactive)

## COc1ccc(Cn2c(N)c(C(=O)NCc3ccco3)c3nc4ccccc4nc32)cc1OC
  inhibition: 0.41% (inactive)

## COc1ccc(Sc2nc(-c3ccccn3)ncc2OC)cc1
  inhibition: 1.12% (inactive)

## COc1cnc(-c2ccccn2)nc1Sc1ccc(C)cc1
  inhibition: -1.26% (inactive)

## Cc1ccc(C(=O)NC2(O)C(=O)c3ccccc3C2=O)cc1C
  inhibition: 2.14% (inactive)
